Test results published in ChEMBL document CHEMBL1201862, “PubChem BioAssay data set” (2004).
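Five compound concentrations were applied to cells in 96-well plates for 48 hours; endpoints were derived by simple linear interpolation of the resulting dose-response curve. The concentration for 50% growth inhibition is given as GI50.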 The source made the active and inactive calls. Rule as the data show it: active = GI50 up to about 1.1 µM and inactive = higher.

Assays:
Assay in all cases: NCI anticancer screen, dose series, 48 h
SNB-19 = system: SNB-19
OVCAR-4 = system: OVCAR-4
NCI-H460 = system: NCI-H460
HCT-116 = system: HCT-116
NCI-H23 = system: NCI-H23
A549 = system: A549
HCT-15 = system: HCT-15
UO-31 = system: UO-31
EKVX = system: EKVX
K562 = system: K562
SF-539 = system: SF-539
COLO 205 = system: COLO 205
HCC 2998 = system: HCC 2998
LOX IMVI = system: LOX IMVI
MDA-MB-231 = system: MDA-MB-231
MDA-MB-435 = system: MDA-MB-435
UACC-257 = system: UACC-257
OVCAR-5 = system: OVCAR-5
SK-MEL-5 = system: SK-MEL-5
U-251 = system: U-251

| Compound | GI50 (SNB-19) | GI50 (OVCAR-4) | GI50 (NCI-H460) | GI50 (HCT-116) | GI50 (NCI-H23) | GI50 (A549) | GI50 (HCT-15) [µM] | GI50 (UO-31) | GI50 (EKVX) | GI50 (K562) | GI50 (SF-539) | GI50 (COLO 205) | GI50 (HCC 2998) | GI50 (LOX IMVI) | GI50 (MDA-MB-231) | GI50 (MDA-MB-435) | GI50 (UACC-257) | GI50 (OVCAR-5) | GI50 (SK-MEL-5) | GI50 (U-251) |
| --- | --- | --- | --- | --- | --- | --- | --- | --- | --- | --- | --- | --- | --- | --- | --- | --- | --- | --- | --- | --- |
| NCCSCCc1ccccc1 | > 100 µM (inactive) | > 100 µM (inactive) | > 100 µM (inactive) | > 100 µM (inactive) | > 100 µM (inactive) | > 100 µM (inactive) | > 100 | > 100 µM (inactive) | > 100 µM (inactive) | > 100 µM (inactive) | > 100 µM (inactive) | > 100 µM (inactive) | > 100 µM (inactive) | > 100 µM (inactive) | > 100 µM (inactive) | > 100 µM (inactive) | > 100 µM (inactive) | > 100 µM (inactive) | > 100 µM (inactive) | > 100 µM (inactive) |
| O=c1oc2ccccc2cc1-c1nnc(-c2ccccc2)s1 | 41.6 µM (inactive) | > 68.2 µM (inactive) | 28.1 µM (inactive) | 20.3 µM (inactive) | > 51.2 µM (inactive) | 38.5 µM (inactive) | 6.73 | 55.6 µM (inactive) | > 58.9 µM (inactive) | 9.89 µM (inactive) | 14.5 µM (inactive) | > 53 µM (inactive) | 12 µM (inactive) | > 72.8 µM (inactive) | 19.1 µM (inactive) | 1.65 µM (inactive) | > 100 µM (inactive) | > 100 µM (inactive) | > 71.3 µM (inactive) | 12.6 µM (inactive) |
| CN(C)c1ccc2cc3ccc(N(C)C)cc3nc2c1 [ACRIDINE ORANGE] | 0.984 µM (active) | 0.853 µM (active) | 0.393 µM (active) | 0.316 µM (active) | 1.51 µM (inactive) | 0.927 µM (active) | 0.467 | 0.871 µM (active) | 1.87 µM (inactive) | 0.397 µM (active) | 1.88 µM (inactive) | 0.975 µM (active) | 0.56 µM (active) | 1.31 µM (inactive) | 1.19 µM (inactive) | 1.79 µM (inactive) | 3.98 µM (inactive) | 2.75 µM (inactive) | 1.99 µM (inactive) | 1.24 µM (inactive) |
